From PubChem BioAssay (NCI)
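Growth conditions: 96-well plates. Treatment: test compound, 48 hours, 5 concentrations. Analysis: linear interpolation between bracketing concentrations; unreached endpoints set to highest concentration. TGI is the concentration that stops growth completely.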

Key:
Assay in all cases: NCI-60 cell line screen, 48 h
[1] = tested on: SK-MEL-5 melanoma
[2] = tested on: UACC-62 melanoma
[3] = tested on: MALME-3M melanoma
[4] = tested on: UO-31 renal
[5] = tested on: SF-539 CNS
[6] = tested on: HCT-116 colon
[7] = tested on: SNB-19 CNS
[8] = tested on: K-562 leukemia
[9] = tested on: COLO 205 colon
[10] = tested on: OVCAR-3 ovarian
[11] = tested on: KM20L2 colon
[12] = tested on: A549 NSCLC
[13] = tested on: HL-60(TB) leukemia
[14] = tested on: HOP-18 NSCLC
[15] = tested on: SF-295 CNS
[16] = tested on: HOP-62 NSCLC
[17] = tested on: SNB-75 CNS
[18] = tested on: HT29 colon
[19] = tested on: HOP-92 NSCLC
[20] = tested on: U251 CNS
[21] = tested on: OVCAR-8 ovarian
[22] = tested on: KM12 colon
[23] = tested on: RPMI-8226 leukemia
[24] = tested on: LXFL 529 NSCLC
[25] = tested on: HCC-2998 colon
[26] = tested on: RXF 393 renal
[27] = tested on: SK-OV-3 ovarian
[28] = tested on: CCRF-CEM leukemia
[29] = tested on: OVCAR-4 ovarian
[30] = tested on: M14 melanoma
[31] = tested on: IGROV1 ovarian
[32] = tested on: SK-MEL-2 melanoma
[33] = tested on: SN12C renal
[34] = tested on: DLD-1 colon
[35] = tested on: 786-0 renal
[36] = tested on: UACC-257 melanoma
[37] = tested on: SF-268 CNS
[38] = tested on: XF 498 CNS
[39] = tested on: SK-MEL-28 melanoma
[40] = tested on: NCI-H226 lung
[41] = tested on: TK-10 renal
[42] = tested on: LOX IMVI melanoma
[43] = tested on: HCT-15 colon
[44] = tested on: NCI-H522 lung
[45] = tested on: NCI-H23 lung
[46] = tested on: SR leukemia
[47] = tested on: NCI-H460 lung
[48] = tested on: SW-620 colon
[49] = tested on: SNB-78 CNS
[50] = tested on: EKVX NSCLC
[51] = tested on: DMS 273 small cell lung
[52] = tested on: CAKI-1 renal
[53] = tested on: OVCAR-5 ovarian
[54] = tested on: M19-MEL melanoma
[55] = tested on: ACHN renal
[56] = tested on: DMS 114 small cell lung
[57] = tested on: DU-145 prostate
[58] = tested on: T-47D breast
[59] = tested on: BT-549 breast
[60] = tested on: MDA-MB-231 breast
[61] = tested on: PC-3 prostate
[62] = tested on: MCF7 breast
[63] = tested on: MOLT-4 leukemia
[64] = tested on: HS 578T breast
[65] = tested on: MDA-N
[66] = tested on: A498 renal
[67] = tested on: MDA-MB-435
[68] = tested on: NCI/ADR-RES ovarian

Compound: O=C(O/N=C1/CCCC/C1=C\c1ccccc1)c1ccc(Cl)cc1
- TGI [1]: > 100 µM
- TGI [2]: > 100 µM
- TGI [3]: > 100 µM
- TGI [4]: > 100 µM
- TGI [5]: > 100 µM
- TGI [6]: > 100 µM
- TGI [7]: > 100 µM
- TGI [8]: > 100 µM
- TGI [9]: > 100 µM
- TGI [10]: > 100 µM
- TGI [11]: > 100 µM
- TGI [12]: > 100 µM
- TGI [13]: > 100 µM
- TGI [14]: > 100 µM
- TGI [15]: > 100 µM
- TGI [16]: > 100 µM
- TGI [17]: > 100 µM
- TGI [18]: > 100 µM
- TGI [19]: > 100 µM
- TGI [20]: > 100 µM
- TGI [21]: > 100 µM
- TGI [22]: > 100 µM
- TGI [23]: > 100 µM
- TGI [24]: > 100 µM
- TGI [25]: 36.2 µM
- TGI [26]: > 100 µM
- TGI [27]: > 100 µM
- TGI [28]: > 100 µM
- TGI [29]: > 100 µM
- TGI [30]: > 100 µM
- TGI [31]: > 100 µM
- TGI [32]: > 100 µM
- TGI [33]: > 100 µM
- TGI [34]: > 100 µM
- TGI [35]: > 100 µM
- TGI [36]: > 100 µM
- TGI [37]: > 100 µM
- TGI [38]: 48.1 µM
- TGI [39]: > 100 µM
- TGI [40]: > 100 µM
- TGI [41]: > 100 µM
- TGI [42]: > 100 µM
- TGI [43]: > 100 µM
- TGI [44]: > 100 µM
- TGI [45]: > 100 µM
- TGI [46]: > 100 µM
- TGI [47]: > 100 µM
- TGI [48]: > 100 µM
- TGI [49]: > 100 µM
- TGI [50]: > 100 µM
- TGI [51]: > 100 µM
- TGI [52]: > 100 µM
- TGI [53]: > 100 µM
- TGI [54]: > 100 µM
- TGI [55]: > 100 µM

Compound: O=c1c2cccnc2ncn1CCCN1CCOCC1
- TGI [1]: > 100 µM
- TGI [2]: > 100 µM
- TGI [3]: > 100 µM
- TGI [4]: > 100 µM
- TGI [5]: > 100 µM
- TGI [6]: > 100 µM
- TGI [7]: > 100 µM
- TGI [8]: > 100 µM
- TGI [9]: > 100 µM
- TGI [10]: > 100 µM
- TGI [11]: > 100 µM
- TGI [12]: > 100 µM
- TGI [15]: > 100 µM
- TGI [16]: > 100 µM
- TGI [17]: > 100 µM
- TGI [18]: > 100 µM
- TGI [19]: > 100 µM
- TGI [20]: > 100 µM
- TGI [21]: > 100 µM
- TGI [22]: > 100 µM
- TGI [24]: > 100 µM
- TGI [25]: > 100 µM
- TGI [26]: > 100 µM
- TGI [27]: > 100 µM
- TGI [28]: > 100 µM
- TGI [29]: > 100 µM
- TGI [30]: > 100 µM
- TGI [31]: > 100 µM
- TGI [56]: > 100 µM
- TGI [33]: > 100 µM
- TGI [34]: > 100 µM
- TGI [35]: > 100 µM
- TGI [37]: > 100 µM
- TGI [38]: > 100 µM
- TGI [39]: > 100 µM
- TGI [40]: > 100 µM
- TGI [41]: > 100 µM
- TGI [42]: > 100 µM
- TGI [44]: > 100 µM
- TGI [45]: > 100 µM
- TGI [46]: > 100 µM
- TGI [47]: > 100 µM
- TGI [48]: > 100 µM
- TGI [49]: > 100 µM
- TGI [50]: > 100 µM
- TGI [51]: > 100 µM
- TGI [52]: > 100 µM
- TGI [53]: > 100 µM
- TGI [54]: > 100 µM
- TGI [55]: > 100 µM

Compound: CSc1nc(=O)c(C#N)c(-c2ccccc2)n1C1OC(COC(C)=O)C(OC(C)=O)C(OC(C)=O)C1OC(C)=O (centres undefined)
- TGI [57]: > 100 µM
- TGI [58]: > 100 µM
- TGI [1]: > 100 µM
- TGI [2]: > 100 µM
- TGI [3]: > 100 µM
- TGI [4]: > 100 µM
- TGI [5]: > 100 µM
- TGI [6]: > 100 µM
- TGI [7]: > 100 µM
- TGI [59]: > 100 µM
- TGI [8]: > 100 µM
- TGI [9]: > 100 µM
- TGI [10]: > 100 µM
- TGI [60]: > 100 µM
- TGI [12]: > 100 µM
- TGI [61]: > 100 µM
- TGI [13]: > 100 µM
- TGI [15]: > 100 µM
- TGI [62]: > 100 µM
- TGI [16]: > 100 µM
- TGI [17]: > 100 µM
- TGI [18]: > 100 µM
- TGI [19]: > 100 µM
- TGI [63]: > 100 µM
- TGI [20]: > 100 µM
- TGI [64]: > 100 µM
- TGI [21]: > 100 µM
- TGI [22]: > 100 µM
- TGI [23]: > 100 µM
- TGI [25]: > 100 µM
- TGI [26]: > 100 µM
- TGI [65]: > 100 µM
- TGI [27]: > 100 µM
- TGI [28]: > 100 µM
- TGI [29]: > 100 µM
- TGI [30]: > 100 µM
- TGI [31]: > 100 µM
- TGI [66]: > 100 µM
- TGI [32]: > 100 µM
- TGI [33]: > 100 µM
- TGI [35]: > 100 µM
- TGI [36]: > 100 µM
- TGI [37]: > 100 µM
- TGI [39]: > 100 µM
- TGI [40]: > 100 µM
- TGI [41]: > 100 µM
- TGI [42]: > 100 µM
- TGI [43]: > 100 µM
- TGI [44]: > 100 µM
- TGI [45]: > 100 µM
- TGI [46]: > 100 µM
- TGI [47]: > 100 µM
- TGI [48]: > 100 µM
- TGI [50]: > 100 µM
- TGI [52]: > 100 µM
- TGI [53]: > 100 µM
- TGI [67]: > 100 µM
- TGI [68]: > 100 µM
- TGI [55]: > 100 µM
